{
  "source": "ChEMBL document CHEMBL4020764",
  "about": "“Phytochemical and cytotoxic studies on the leaves of Calotropis gigantea” (Bioorg Med Chem Lett, 2017)",
  "key": {"PANC-1 [1]": {"test_system": "PANC-1", "test": "Cytotoxicity against human PANC1 cells after 72 hrs by WST8 assay", "type": "functional, cell-based", "settings": "PANC-1, 72 h"}, "PANC-1 [2]": {"test_system": "PANC-1", "test": "Induction of morphological changes in human PANC1 cells assessed as cell rounding at 5 to 10 uM after 72 hrs by ethidium bromide/acridine orange staining based fluorescent microscopic analysis", "type": "functional"}, "PANC-1 [3]": {"test_system": "PANC-1", "test": "Induction of morphological changes in human PANC1 cells assessed as disruption of cellular organelles at 5 to 10 uM after 72 hrs by ethidium bromide/acridine orange staining based fluorescent microscopic analysis", "type": "functional, cell-based"}, "PANC-1 [4]": {"test_system": "PANC-1", "test": "Induction of morphological changes in human PANC1 cells assessed as increase in EB positive cells at 5 to 10 uM after 72 hrs by ethidium bromide/acridine orange staining based fluorescent microscopic analysis", "type": "functional, cell-based"}, "PANC-1 [5]": {"test_system": "PANC-1", "test": "Inhibition of colony formation in human PANC1 cells after 10 days by crystal violet staining based assay", "type": "functional, cell-based"}, "PANC-1 [6]": {"test_system": "PANC-1", "test": "Growth inhibition of human PANC1 cells after 72 hrs by WST8 assay", "type": "functional", "settings": "PANC-1, 72 h"}, "PANC-1 [7]": {"test_system": "PANC-1", "test": "Cytotoxicity against human PANC1 cells at >25 uM measured after 72 hrs by WST8 assay", "type": "functional, cell-based"}},
  "note": "The source made the active and inactive calls. The calls are words filed in the database; no cut-off is given here.",
  "data": [
    {"compound": "CC(=O)[C@H]1CC[C@@]2(O)[C@@H]3C=CC4=CC(=O)CC[C@]4(C)[C@H]3CC[C@]12C", "values": [
      {"measurement": "IC50", "setting": "PANC-1 [1]", "result": 79.3, "unit": "µM"}
    ]},
    {"compound": "CC(=O)[C@]1(O)CC[C@]2(O)[C@@H]3CC=C4C[C@@H](O)CC[C@]4(C)[C@H]3C[C@@H](OC(=O)c3ccccc3)[C@]12C", "values": [
      {"measurement": "IC50", "setting": "PANC-1 [1]", "result": 18.7, "unit": "µM"}
    ]},
    {"compound": "O=Cc1ccc(CO)o1", "note": "[AES-103]", "values": [
      {"measurement": "IC50", "setting": "PANC-1 [1]", "result": "> 100", "unit": "µM"}
    ]},
    {"compound": "COc1cc(C(=O)OC[C@H]2O[C@@H](Oc3ccc([C@H]4OC[C@H]5[C@@H]4CO[C@@H]5c4ccc(O)c(OC)c4)cc3OC)[C@H](O)[C@@H](O)[C@@H]2O)ccc1O", "values": [
      {"measurement": "IC50", "setting": "PANC-1 [1]", "result": 63.4, "unit": "µM"}
    ]},
    {"compound": "COc1cc([C@H]2OC[C@H]3[C@@H]2CO[C@@H]3c2cc(OC)c(O)c(OC)c2)cc(OC)c1O", "note": "[SYRINGARESINOL]", "values": [
      {"measurement": "IC50", "setting": "PANC-1 [1]", "result": 61.1, "unit": "µM"}
    ]},
    {"compound": "Cc1ncccc1O", "values": [
      {"measurement": "IC50", "setting": "PANC-1 [1]", "result": "> 100", "unit": "µM"}
    ]},
    {"compound": "CC(=O)[C@H]1CC[C@H]2[C@@H]3C=CC4=CC(=O)CC[C@]4(C)[C@H]3CC[C@]12C", "values": [
      {"measurement": "IC50", "setting": "PANC-1 [1]", "result": 40, "unit": "µM"}
    ]},
    {"compound": "CO[C@@H]1C[C@@H](OCc2ccc(C=O)o2)O[C@@H](C)[C@@H]1O", "values": [
      {"measurement": "IC50", "setting": "PANC-1 [1]", "result": "> 100", "unit": "µM"}
    ]},
    {"compound": "CO[C@H]1C[C@@H](OCc2ccc(C=O)o2)O[C@@H]1[C@@H](C)O", "values": [
      {"measurement": "IC50", "setting": "PANC-1 [1]", "result": "> 100", "unit": "µM"}
    ]},
    {"compound": "COc1cc([C@H]2OC[C@H]3[C@@H]2CO[C@@H]3c2ccc(O)c(OC)c2)ccc1O", "values": [
      {"measurement": "IC50", "setting": "PANC-1 [1]", "result": 37.5, "unit": "µM"}
    ]},
    {"compound": "COc1cc([C@H]2O[C@@H](OC)[C@H]3[C@@H]2CO[C@@H]3c2ccc(O)c(OC)c2)ccc1O", "values": [
      {"measurement": "IC50", "setting": "PANC-1 [1]", "result": 3.7, "unit": "µM"},
      {"measurement": "Activity", "setting": "PANC-1 [2]", "result": "Active"},
      {"measurement": "Activity", "setting": "PANC-1 [3]", "result": "Active"},
      {"measurement": "Activity", "setting": "PANC-1 [4]", "result": "Active"},
      {"measurement": "inhibition", "setting": "PANC-1 [5]", "result": "Dose-dependent effect"}
    ]},
    {"compound": "Nc1ccn([C@@H]2O[C@H](CO)[C@@H](O)C2(F)F)c(=O)n1", "note": "[GEMCITABINE]", "values": [
      {"measurement": "GI50", "setting": "PANC-1 [6]", "result": 5.8, "unit": "µM"},
      {"measurement": "Activity", "setting": "PANC-1 [7]", "result": "Active"}
    ]},
    {"compound": "O=C(/C=C/c1ccc(O)cc1)c1ccc(O)cc1O", "note": "[ISOLIQUIRITIGENIN]", "values": [
      {"measurement": "IC50", "setting": "PANC-1 [1]", "result": 3.3, "unit": "µM"}
    ]}
  ]
}
